Where two headings read alike, the source gives them in different places.
What was measured:
[1] = Stability in aqueous solution containing 1% DMSO by UV-vis spectroscopy; assay type: physicochemical; details: over 48 h
Procedure: The stability of ligands HL^2 and HL^3 in aqueous solution containing 1% DMSO over 24 and 48 h was monitored by UV–vis spectroscopy (Figure S30 in the Supporting Information). Similarly, the behavior of complexes 1a and 1b as well as 2 and 3 was investigated in aqueous solutions containing 1% DMSO over 12 and 48 h by optical spectroscopy (Figures S31 and S32). […] High thermodynamic and kinetic stability of five-coordinate complexes reported herein can presumably be explained in terms of hard and soft acids and bases theory. Cu^2+ as a borderline metal ion is expected to bind to a soft base, for example, S atom instead of terminal N atom, as is the case for thiosemicarbazides. However, the hard–soft character of the metal ion might be altered by the other ligands attached due to symbiotic effects.[30] This might be the case herein, where bonding of copper(II) to four hard base ligands, namely, to two N atoms (N7 and N15 in Figure 1) and two Cl^– co-ligands, as well as to one borderline base N(pyridine) atom, can reduce the softness of Cu^2+, leading to increased stability of the complexes.

LS-174 = assay: MTT cytotoxicity assay, monolayer culture; assay type: cell-based, human; details: 2D monolayer, read-out: IC50 (μM) ± S.D. LS-174
From the text: (§1) The cytotoxicity of metal-free indolobenzazocines HL^1–HL^5 and their metal complexes 1a, 1b, and 2–5 was investigated by the colorimetric MTT assay in a panel of four human cancer cell lines, namely, human colon carcinoma HCT116 and LS-174, breast adenocarcinoma MDA-MB-361, and lung adenocarcinoma A549, as well as in human non-malignant cell line MRC-5 maintained as monolayer culture. Cisplatin or cis-diamminedichloridoplatinum(II) (CDDP), a well-known chemotherapeutic agent, was used as a positive control. The results obtained after 72 h of continuous drug action are presented as IC50 values (μM) in Table 1.
(§2) Human tumor cell lines derived from human colorectal carcinoma, LS-174 and HCT116, human breast adenocarcinoma, MDA-MB-361, human lung adenocarcinoma, A549, and non-tumor human fetal lung fibroblast cell line, MRC-5, were maintained as a monolayer culture in the Roswell Park Memorial Institute (RPMI) 1640 nutrient medium (Sigma Chemicals Co, USA). RPMI 1640 medium was prepared in sterile ionized water, supplemented with penicillin (100 IU/mL), streptomycin (200 μg/mL), 4-(2-hydroxyethyl) piperazine-1-ethanesulfonic acid (HEPES) (25 mM), L-glutamine (3 mM), and 10% of heat-inactivated fetal calf serum (FCS) (pH = 7.2). The cells were grown at 37 °C in a humidified atmosphere containing 5% CO2.
(§3) Cells were seeded into 96-well culture plates (Thermo Scientific Nunc) at cell densities of 5000 cells per well (HCT116, A549, and MRC-5) and 8000 cells/well (LS-174 and MDA-MB-361) in 100 μL of cell culture medium and left overnight. Eleven tested compounds were dissolved in DMSO to the stock concentration of 20 mM immediately before the experiment, whereas further dilutions were made in the culture medium so that the final concentration of DMSO never exceeded 1% (v/v). Cisplatin (cis-diamminedichloridoplatinum(II), CDDP) was used as a reference compound. After 72 h of continuous incubation, MTT solution (3-(4.5-dimethylthiazol-2-yl)-2.5-diphenyltetrazolium bromide, Sigma-Aldrich) was added to each well (5 mg/mL).[63] The culture plates were incubated at 37 °C for the next 4 h, and finally, 10% sodium dodecyl sulfate (SDS) was added to dissolve formed formazan crystals. Absorbances were measured after 24 h on a microplate reader (Thermo Labsystems Multiscan EX 200–240 V) at a wavelength of 570 nm.

MDA-MB-361 = assay: MTT cytotoxicity assay, monolayer culture; assay type: cell-based, human; details: 72 h continuous drug action, 2D monolayer, read-out: IC50 (μM) ± S.D. MDA-MB-361
From the text: as §1, §2, §3

A549 = assay: MTT cytotoxicity assay, monolayer culture; assay type: cell-based, human; details: 2D monolayer, read-out: IC50 (μM) ± S.D. A549
From the text: as §1, §2, §3

HCT116 = assay: MTT cytotoxicity assay, monolayer culture; assay type: cell-based, human; details: 72 h continuous drug action, 2D monolayer, read-out: IC50 (μM) ± S.D. HCT116
From the text: as §1, §2, §3

MRC-5 = assay: MTT cytotoxicity assay, monolayer culture; assay type: cell-based, human; details: non-malignant cell line, read-out: IC50 (μM) ± S.D. MRC-5
From the text: as §1, §2, §3

[2] = Solubility in water/1% DMSO; assay type: physicochemical
HCT116 cells = assay: Annexin V-FITC/PI apoptosis assay by flow cytometry; assay type: cell-based, human; details: HCT116, 48 h, 3× IC50; non-treated control 2.29%
From the text: The obtained experimental data are presented in Figure 4 as percentages of early apoptotic cells (Annexin V-positive/PI-negative staining), late apoptotic and necrotic cells (Annexin V-positive/PI-positive staining), and dead cells (Annexin V-negative/PI-positive staining). By the current test (BD Pharmingen protocol)[39] for the cells which are already dead (Annexin V-negative/PI-positive staining), we cannot distinguish between types of the occurred cell death.
Quantitative analysis of apoptotic and necrotic cell death induced by the investigated complexes and CDDP was performed by Annexin V-FITC/PI assay. 2 × 10^5 HCT116 or 3 × 10^5 LS-174 cells were seeded into six-well plates (Thermo Scientific Nunc), and after 24 h of growth, cells were treated with tested compounds or CDDP. Following the 24 h and 48 h incubation time, cells were harvested and resuspended in 200 μL 1 × Binding Buffer (10 mM HEPES/NaOH pH 7.4, 140 mM NaCl, 2.5 mM CaCl2). 100 μL of the cell suspension (∼1 × 10^5 cells) was transferred to a 5 mL round-bottom polystyrene tube (Falcon, Corning) and mixed with 5 μL of both FITC Annexin V (BD Pharmingen[39]) and PI (50 μg/mL in PBS).[65] […] Samples were analyzed using an FACS BD Calibur flow cytometer (Becton–Dickinson, Heidelberg Germany) and Cell Quest computer software.

LS-174 MCTS = assay: MTT assay in 3D multicellular tumor spheroid (MCTS) model; assay type: cell-based, human; details: 3D MCTS, 72 h continuous drug action, read-out: IC50 (μM) ± S.D. LS-174, 3D cell culture model
From the text: (§4) Due to the complex tissue environment, 3D multicellular tumor spheroid (MCTS) models mimic the in vivo architecture closer than 2D cell cultures, thereby allowing more precise prediction of effectiveness of organic drug candidates as well as metal-based ones in animal models.[41]−[44] The efficacy of HL^5, 5, and cisplatin in the 3D MCTS model was investigated in two human colorectal cancer cell lines (CRC) LS-174 and HCT116. We used ultra-low attachment (ULA) plates for the growth of spheroids. Spheroids were incubated for 72 h and then photographed, and IC50 values were determined using MTT assay. Tumor spheroids of diameter >500 μm selected for treatment reflect to a certain extent the tumor complexity as they are composed of several specialized areas and layers where cells show different phenotypic, functional, and metabolic behaviors.[45] They display an organized architecture with an external layer composed of proliferating cells, an intermediate zone composed of quiescent and senescent cells, and an inner apoptotic and necrotic core which is the result of the reduced distribution of nutrients and oxygen in these areas.[46],[47]
(§5) The MCTSs as 3D cell culture models were established by seeding cells at optimized densities between 500 and 1500 cells/well in the ultra-low attachment (ULA) U96-well plate Thermo Scientific Nunclon Sphera in their respective culture media.[34] […]

HCT116 MCTS = assay: as above; assay type: cell-based, human; details: 3D MCTS, 72 h continuous drug action, read-out: IC50 (μM) ± S.D. HCT116, 3D cell culture model
From the text: as §4, §5

Cc1ccc(C(C)C)cc1.O=C1NCCc2ccccc2-c2[nH]c3ccc([N+]4=Cc5cccc[n+]5[Ru-]4[Cl])cc3c21.[Cl-] [1a]
stability by UV-vis absorption spectra [1]: remained intact | IC50 (LS-174; 72 h continuous drug action): > 200 µM | IC50 (MDA-MB-361): 91.2 ± 3.5 µM | IC50 (A549; 72 h continuous drug action): 160 ± 18.2 µM | IC50 (HCT116): 32.9 ± 7.1 µM | IC50 (MRC-5; 72 h continuous drug action): 89.8 ± 2.1 µM

Cc1ccc(C(C)C)cc1.O=C1NCCc2ccccc2-c2[nH]c3ccc([N+]4=Cc5cccc[n+]5[Os-]4[Cl])cc3c21.[Cl-] [1b]
stability by UV-vis absorption spectra [1]: remained intact | IC50 (LS-174; 72 h continuous drug action): 182 ± 2.1 µM | IC50 (MDA-MB-361): 71.9 ± 2.6 µM | IC50 (A549; 72 h continuous drug action): 91 ± 9.3 µM | IC50 (HCT116): 40.2 ± 6.7 µM | IC50 (MRC-5; 72 h continuous drug action): 84.8 ± 6.6 µM | Solubility in water/1% DMSO [2]: ≥ 1.0 mg mL^–1

N.N.[Cl][Pt][Cl] [CDDP, cis-diamminedichloridoplatinum(II), reference compound]
early apoptotic cells (Annexin V-positive/PI-negative) (HCT116 cells): 19.14% | IC50 (LS-174; 72 h continuous drug action): 19 ± 0.5 µM | IC50 (MDA-MB-361): 26.4 ± 3.7 µM | IC50 (A549; 72 h continuous drug action): 17.4 ± 3.5 µM | IC50 (HCT116): 13.6 ± 1.1 µM | IC50 (MRC-5; 72 h continuous drug action): 8 ± 1.1 µM | IC50 (LS-174 MCTS): 17.8 ± 1.2 µM | IC50 (HCT116 MCTS): 19.6 ± 2.2 µM

O=C1NCCc2ccccc2-c2[nH]c3ccc(/N=C/c4ccccn4)cc3c21 [HL^1]
IC50 (LS-174; Homo sapiens, LS174, 72 h continuous drug action): 191 ± 5.8 µM | IC50 (A549; Homo sapiens, A549, 72 h continuous drug action): > 200 µM | IC50 (MRC-5; Homo sapiens, MRC5, 72 h continuous drug action): 168 ± 15.8 µM

From article PMC9768754, “Enriching Chemical Space of Bioactive Scaffolds by New Ring Systems: Benzazocines and Their Metal Complexes as Potential Anticancer Drugs” (Inorganic Chemistry, 2022)
